Data published in patent US10188622B2, “Use of a composition comprising fish oil and juice for the treatment and/or post treatment of cancer” (Smartfish AS, priority 2013, dated 2019).
Where “and” joins values, the source holds several entries; their conditions need not be identical. Equal entries are not always repeated.

System: MP2 cells co-cultured with NK (IL-2) cells
Assay: Enzymatic caspase-3 assay (CaspACE-3) in co-culture of pancreatic cancer cells and NK cells
Type: cell-based, human
Details: 48 hours; for Casp-3, X1 / Casp-3, X2 / Casp-3, X3 / Casp-3, Mean: MP2 cells + NK (IL-2); for Casp-3, X1: experiment X1; for Casp-3, X1 / Casp-3, X2 / Casp-3, X3: RvD1 and DHA 50 nM; for Casp-3, X2: experiment X2; for Casp-3, X3: experiment X3; for Casp-3, Mean: mean of X1-X3; for caspase-3 expression (mean ± 2× standard error): PDAC (MP2) cells co-cultured with NK cells, as stated in text
Method: Mia Paca2 (MP2) and L3.6 cells from pancreatic ductal adenocarcinoma so (PDAC) were obtained from T. Donahue, UCLA Surgery and were propagated in Dulbecco's Modified Eagle's Medium (DME) with 10% foetal calf serum. 10,000 cells were plated in each well of 24-well plates and were grown at 37° C. and 24 h to near confluence before testing.
These were isolated from human blood by NK cell isolation kit (Stem cell technologies, Vancouver, Canada). NK cells were activated by treatment with IL-2 or IL2/CD16 as described in Tseng, H. C. et al. “Increased lysis of stem cells but not their differentiated cells by natural killer cells; de-differentiation or reprogramming activates NK cells.” PLOS One 5(7): e11590, 2010.
Composition of the invention (Nutrifriend 2000) containing DHA (1000 mg/200 ml) and EPA (1000 mg/200 ml) was purchased by the company Smartfish AS, Oslo, For use in cell culture, diluted 1:2 with fetal calf serum, sonicated for 30 sec and then diluted 1:100 in DMEM with 10% fetal calf serum.
NK cells were added to MP2 or L3.6 cells at a ratio of 5 NK cells per 1 MP2 cell. The co-cultures were treated with Smartfish. Addition of DHA (50 nM) or resolvin D1 (RvD1 from Cayman Chemical company, Ann Arbor, Mich., 50 nM) were tested as controls. The co-cultures is were grown for 48 hours, harvested and tested by the caspase-3 assay.
The enzymatic caspase-3 assay was performed by the CaspACE-3 assay G-7351 (Promega Corporation, Madison, Wis.) according to the manufacturer's instructions.
The data were analyzed by comparing the range of means (mean+/−2× standard error of mean). When indicated the exact value was calculated by the Fisher exact test.

Row | Structure (SMILES) | Casp-3, X1 [µM] | Casp-3, X2 [µM] | Casp-3, X3 [µM] | Casp-3, Mean [µM] | caspase-3 expression (mean ± 2× standard error) | caspase-3 expression (mean ± 2× standard error) (listed as resolvinD1) [µM]
1 | CC/C=C\C[C@H](O)/C=C/C=C\C=C\C=C\[C@@H](O)[C@@H](O)C/C=C\CCC(=O)O [RvD1, resolvin D1] | 6 | 6.3 | 6.6 | 6.3 | 6.3 ± 0.31 µM | 6.3 ± 0.31
2 | CC/C=C\C/C=C\C/C=C\C/C=C\C/C=C\C/C=C\CCC(=O)O [DHA, docosahexanoic acid] | 5.7 | 6.6 | 6 | 6.1 | 6.1 µM and 6.1 ± 0.48 µM | –
